From patent publication US12398108B2, “Compounds, compositions, and methods for treating diseases” (Drexel University, priority 2017, dated 2025)

How the values were obtained:
Human Androgen Receptor = test: Indigo Biosciences Human Androgen Receptor Reporter Assay System; type: cell-based
Experimental: The compound's activity was also measured for its ability to inhibit androgen receptor reporter activity. The assay that was used was Indigo Biosciences Human Androgen Receptor Reporter Assay System. […] Based upon these activities, the compounds are expected to have anti-tumor effects.

breast cancer = test: administration to a subject who has breast cancer; type: in vivo
Experimental: 1-(2,2-Dimethyl-3-(4-(trifluoromethyl)phenoxy)propyl)-3-(pyrimidin-5-yl)guanidine is administered to a subject who has breast cancer. The tumor growth is inhibited and the tumor size is reduced.

[1] = administration to a subject in pain; type: in vivo
Experimental: 1-(2,2-Dimethyl-3-(4-(trifluoromethyl)phenoxy)propyl)-3-(pyrimidin-5-yl)guanidine is administered to a subject in pain. The subject's pain is alleviated.

Sigma1 receptor = Sigma1 receptor (Homo sapiens, UniProt Q99720); test: binding to Sigma1 receptor
Sequence of Sigma1 receptor (Q99720 whole entry, species assumed): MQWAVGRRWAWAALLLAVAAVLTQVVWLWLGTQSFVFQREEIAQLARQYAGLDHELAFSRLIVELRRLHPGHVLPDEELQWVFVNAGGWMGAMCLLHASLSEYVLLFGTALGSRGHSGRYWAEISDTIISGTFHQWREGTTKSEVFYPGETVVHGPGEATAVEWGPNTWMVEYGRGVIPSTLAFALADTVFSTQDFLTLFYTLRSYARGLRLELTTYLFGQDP

binding to Sigma1 receptor (Sigma1 receptor): nanomolar range
SMILES: CC(C)(CNC(=N)Nc1cncnc1)COc1ccc(C(F)(F)F)cc1 [1-(2,2-Dimethyl-3-(4-(trifluoromethyl)phenoxy)propyl)-3-(pyrimidin-5-yl)guanidine]
ability to inhibit androgen receptor reporter activity (Human Androgen Receptor): active | tumor growth (breast cancer): inhibited | tumor size (breast cancer): reduced | subject's pain [1]: alleviated
